Values quoted from earlier work, collected in patent publication US10954336B2 (SCRUM Co., Ltd., priority 2017, dated 2021).

Details: comparison / conventional substances

For `C[C@H](O)C(=O)O` [L-lactic acid], the Acidity is listed as “yes”.
